Results on 10 compounds are retold here after patent US20170022171A1, “2,5-DISUBSTITUTED CYCLOPENTANECARBOXYLIC ACIDS AND THEIR USE” (Bayer Pharma Aktiengesellschaft, priority 2014, published 2017).

Common to all, as to type: biochemical
Test [1] addresses T1, MMP-16 (Homo sapiens, UniProt P51512).
T1 construct: purchased R&D Systems 1785-MP
The experiment in a line: In vitro MMP-16 inhibition test. The source says: (§1) The MMP-mediated amidolytic cleavage of a suitable peptide substrate leads to an increase in fluorescent light here too. The signal intensity of the fluorescent light is directly proportional to the enzyme activity. The active concentration of a test compound at which half the enzyme is inhibited (50% signal intensity of the fluorescent light) is reported as the IC50 value.
Recombinant MMP-16 (from R&D Systems, 1785-MP) is enzymatically activated in accordance with the manufacturer's instructions using recombinant furin (from R&D Systems, 1503-SE). 1 μl of the test compound to be analysed (as a solution in DMSO, suitable concentrations e.g. 1 nM to 30 μM) is pipetted into 24 μl of activated enzyme (final concentration e.g. 1 nM) in reaction buffer (50 mM Tris/HCl pH 7.5, 10 mM CaCl2, 150 mM NaCl, 0.05% Brij®-35) in a white 384-hole microtiter plate (MTP). The enzymatic reaction is started by adding the intramolecularly quenched Mca-Lys-Pro-Leu-Gly-Leu-Dpa(Dnp)-Ala-Arg-NH2 substrate (final concentration, for example, 5 μM; R&D Systems, ES-010), so as to result in a total test volume of 50 The course of the MMP-16 reaction is measured by measuring the fluorescence intensity (excitation 320 nm, emission 410 nm) over a suitable period of time (for example over 120 min at a temperature of 32° C.).

The target of test [2] is T2, MMP-10 (Homo sapiens, UniProt P09238).
T2 construct: purchased R&D Systems 910-MP
The experiment in a line: In vitro MMP-10 inhibition test.
From the text: as §1
Recombinant MMP-10 (from R&D Systems, 910-MP) is chemically activated in accordance with the manufacturer's instructions using APMA. 1 μl of the test compound to be analysed (as a solution in DMSO, suitable concentrations, for example, 1 nM to 30 μM) is pipetted into 24 μl of activated enzyme (final concentration, for example, 2 nM) in reaction buffer (50 mM Tris/HCl pH 7.5, 10 mM CaCl2, 150 mM NaCl, 0.05% Brij®-35) in a white 384-hole microtiter plate (MTP). The enzymatic reaction is started by adding the intramolecularly quenched Mca-Arg-Pro-Lys-Pro-Val-Glu-Nval-Trp-Arg-Lys(Dnp)-NH2 substrate (final concentration, for example, 10 μM; R&D Systems, ES-002), so as to result in a total test volume of 50 μl. The course of the MMP-10 reaction is measured by measuring the fluorescence intensity (excitation 320 nm, emission 410 nm) over a suitable period of time (for example over 120 min at a temperature of 32° C.).

In test [3] the target is T3, MMP-13 (Homo sapiens, UniProt P45452).
T3 construct: purchased R&D Systems 511-MP
The experiment in a line: In vitro MMP-13 inhibition test.
From the text: as §1
Recombinant MMP-13 (from R&D Systems, 511-MP) is chemically activated in accordance with the manufacturer's instructions using APMA. 1 μl of the test compound to be analysed (as a solution in DMSO, suitable concentrations, for example, 1 nM to 30 μM) is pipetted into 24 μl of activated enzyme (final concentration, for example, 0.1 nM) in reaction buffer (50 mM Tris/HCl pH 7.5, 10 mM CaCl2, 150 mM NaCl, 0.05% Brij®-35) in a white 384-hole microtiter plate (MTP). The enzymatic reaction is started by adding the intramolecularly quenched Mca-Pro-Leu-Gly-Leu-Dpa(Dnp)-Ala-Arg-NH2 substrate (final concentration, for example, 10 μM; R&D Systems, ES-001), so as to result in a total test volume of 50 The course of the MMP-13 reaction is measured by measuring the fluorescence intensity (excitation 320 nm, emission 410 nm) over a suitable period of time (for example over 120 min at a temperature of 32° C.).

The target of test [4] is T4, MMP-14 (Homo sapiens, UniProt P50281).
T4 construct: purchased R&D Systems 918-MP
The experiment in a line: In vitro MMP-14 inhibition test.
From the text: as §1
Recombinant MMP-14 (from R&D Systems, 918-MP) is enzymatically activated in accordance with the manufacturer's instructions using recombinant furin (from R&D Systems, 1503-SE). 1 μl of the test compound to be analysed (as a solution in DMSO, suitable concentrations e.g. 1 nM to 30 μM) is pipetted into 24 μl of activated enzyme (final concentration e.g. 0.5 nM) in reaction buffer (50 mM Tris/HCl pH 7.5, 10 mM CaCl2, 150 mM NaCl, 0.05% Brij®-35) in a white 384-hole microtiter plate (MTP). The enzymatic reaction is started by adding the intramolecularly quenched Mca-Lys-Pro-Leu-Gly-Leu-Dpa(Dnp)-Ala-Arg-NH2 substrate (final concentration, for example, 5 μM; R&D Systems, ES-010), so as to result in a total test volume of 50 The course of the MMP-14 reaction is measured by measuring the fluorescence intensity (excitation 320 nm, emission 410 nm) over a suitable period of time (for example over 120 min at a temperature of 32° C.).

The target in test [5] is T5, human macrophage elastase (HME/hMMP-12) (Homo sapiens, UniProt P39900).
T5 construct: 0.5 nM HME; purchased R&D Systems 917-MP
The experiment in a line: In vitro HME inhibition test (standard or high-sensitivity). Conditions: in some cases mean values. Summed up: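 Fluorogenic assay: 0.5 nM autoactivated HME with 5 µM Mca-Pro-Leu-Gly-Leu-Glu-Glu-Ala-Dap(Dnp)-NH2 in HEPES pH 7.4 buffer (NaCl, CaCl2, ZnCl2, EDTA, Brij), 2 h at 37 °C; ex 323/em 393 nm. IC50 from fluorescence versus concentration. High-sensitivity format: ~0.05 nM enzyme, ~16 h incubation.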

T2 sequence (P09238 99-476): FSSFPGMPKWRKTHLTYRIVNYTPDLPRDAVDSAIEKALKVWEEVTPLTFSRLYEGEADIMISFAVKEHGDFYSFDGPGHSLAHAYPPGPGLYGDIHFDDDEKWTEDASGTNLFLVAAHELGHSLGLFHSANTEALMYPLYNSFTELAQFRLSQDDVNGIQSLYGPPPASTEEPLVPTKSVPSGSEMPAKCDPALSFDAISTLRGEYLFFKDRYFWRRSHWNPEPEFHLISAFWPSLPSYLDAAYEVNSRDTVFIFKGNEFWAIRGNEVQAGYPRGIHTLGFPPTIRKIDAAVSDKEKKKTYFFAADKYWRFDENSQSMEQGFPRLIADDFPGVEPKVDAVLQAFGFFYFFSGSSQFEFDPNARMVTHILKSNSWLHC
T1 sequence (P51512 120-564 limits assumed): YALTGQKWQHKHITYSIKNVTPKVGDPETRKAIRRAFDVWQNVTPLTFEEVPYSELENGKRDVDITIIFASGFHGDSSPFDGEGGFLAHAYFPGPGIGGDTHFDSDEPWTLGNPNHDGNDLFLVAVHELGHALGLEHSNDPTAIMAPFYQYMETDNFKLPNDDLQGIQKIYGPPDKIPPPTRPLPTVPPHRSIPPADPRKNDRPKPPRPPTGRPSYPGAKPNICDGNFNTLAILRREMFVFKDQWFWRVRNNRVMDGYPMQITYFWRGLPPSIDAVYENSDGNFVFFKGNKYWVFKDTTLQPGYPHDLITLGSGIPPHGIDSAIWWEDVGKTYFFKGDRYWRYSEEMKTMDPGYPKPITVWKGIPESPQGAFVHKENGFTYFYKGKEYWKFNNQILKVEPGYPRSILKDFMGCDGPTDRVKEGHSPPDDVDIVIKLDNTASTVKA
T5 sequence (P39900 106-470): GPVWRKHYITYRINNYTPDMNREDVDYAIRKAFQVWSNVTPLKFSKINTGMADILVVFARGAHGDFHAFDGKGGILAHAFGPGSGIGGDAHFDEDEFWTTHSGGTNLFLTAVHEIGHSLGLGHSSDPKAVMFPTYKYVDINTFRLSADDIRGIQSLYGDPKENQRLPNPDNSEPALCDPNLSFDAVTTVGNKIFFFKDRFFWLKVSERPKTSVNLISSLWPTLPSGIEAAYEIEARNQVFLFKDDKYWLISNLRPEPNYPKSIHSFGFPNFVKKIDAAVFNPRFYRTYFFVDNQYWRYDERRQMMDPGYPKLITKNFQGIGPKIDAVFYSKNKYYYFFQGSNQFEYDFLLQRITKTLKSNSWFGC

Broadly, the IC50 is the concentration at which inhibition is half-maximal. Lower therefore signals higher potency. Regarding “(+)-(1RS,2SR,5RS)-2-{[4-Oxo-6-(trifluoromethyl)-1,2,3-benzotriazin-3(4H)-yl]methyl}-5-{4-[(2-phenylethy)sulphanyl]benzoyl}cyclopentanecarboxylic acid [Example 83]”, the IC50 in test [1] is > 40000 nM; in test [2], 120 nM; in test [3] it was 2800 nM; in test [4], 3900 nM; in test [5], 0.11 nM.
For `O=C(O)[C@@H]1[C@@H](Cn2nnc3ccc(C(F)(F)F)cc3c2=O)CC[C@H]1C(=O)c1ccc(OCc2cccc(N3CCOC3=O)c2)cc1` (single isomer, unassigned) [Example 35, (+)-(1RS,2RS,5SR)-2-(4-{[3-(2-Oxo-1,3-oxazolidin-3-yl)benzyl]oxy}benzoyl)-5-{[4-oxo-6-(trifluoromethyl)-1,2,3-benzotriazin-3(4H)-yl]methyl}cyclopentanecarboxylic acid], in that order: 300 nM, 53 nM, 53 nM, 170 nM and 0.013 nM.
For `COc1cccc(COc2ccc(C(=O)[C@H]3CC[C@@H](Cn4nnc5ccc(C)cc5c4=O)[C@@H]3C(=O)O)cc2)c1` (racemic) [Example 106, (+/−)-(1RS,2RS,5SR)-2-{4-[(3-Methoxybenzyl)oxy]benzoyl}-5-[(6-methyl-4-oxo-1,2,3-benzotriazin-3(4H)-yl)methyl]cyclopentanecarboxylic acid], in that order: 190 nM, 39 nM, 120 nM, 180 nM and 0.078 nM.
For `O=C(O)[C@@H]1[C@@H](Cn2nnc3ccc(C(F)(F)F)cc3c2=O)CC[C@H]1C(=O)c1ccc(SCc2ccccc2)cc1` (single isomer, unassigned) [Example 75, (+)-(1RS,2RS,5SR)-2-[4-(Benzylsulphanyl)benzoyl]-5-{[4-oxo-6-(trifluoromethyl)-1,2,3-benzotriazin-3(4H)-yl]methyl}cyclopentanecarboxylic acid], in that order: 3600 nM, 57 nM, 2300 nM, 1900 nM and 0.051 nM.
As to `Cc1cccc(COc2ccc(C(=O)[C@@H]3CC[C@H](Cn4nnc5ccc(C(F)(F)F)cc5c4=O)[C@H]3C(=O)O)cc2)c1` (single isomer, unassigned) [Example 16, (+)-(1RS,2RS,5SR)-2-{4-[(3-Methylbenzyl)oxy]benzoyl}-5-{[4-oxo-6-(trifluoromethyl)-1,2,3-benzotriazin-3(4H)-yl]methyl}cyclopentanecarboxylic acid], the IC50 in test [1] was found to be 1700 nM; in test [2], 37 nM; in test [3], 1000 nM; in test [4] it was 320 nM; in test [5], 0.064 nM.
The like results for `Cc1ccc2nnn(C[C@@H]3CC[C@H](C(=O)c4ccc(OCc5cccc(Cl)c5)cc4)[C@H]3C(=O)O)c(=O)c2c1` (racemic) [Example 103, (+/−)-(1RS,2RS,5SR)-2-{4-[(3-Chlorobenzyl)oxy]benzoyl}-5-[(6-methyl-4-oxo-1,2,3-benzotriazin-3(4H)-yl)methyl]cyclopentanecarboxylic acid] were, in that order, 14000 nM, 35 nM, 250 nM, 320 nM and 0.1 nM.
As to `O=C(O)[C@@H]1[C@@H](Cn2nnc3ccc(C(F)(F)F)cc3c2=O)CC[C@H]1C(=O)c1ccc(SCc2cccc(Cl)c2)cc1` (single isomer, unassigned) [Example 77, (+)-(1RS,2RS,5SR)-2-{4-[(3-Chlorobenzyl)sulphanyl]benzoyl}-5-{[4-oxo-6-(trifluoromethyl)-1,2,3-benzotriazin-3(4H)-yl]methyl}cyclopentanecarboxylic acid], the IC50 in test [1] is 3800 nM; in test [2] it was 30 nM; in test [3] it was 770 nM; in test [4] it was 1200 nM; in test [5], 0.04 nM.
As to `CCCCCSc1ccc(C(=O)[C@H]2CC[C@@H](Cn3nnc4ccc(C(F)(F)F)cc4c3=O)[C@@H]2C(=O)O)cc1` (racemic) [Example 88, (+/−)-(1RS,2SR,5RS)-2-{[4-Oxo-6-(trifluoromethyl)-1,2,3-benzotriazin-3(4H)-yl]methyl}-5-[4-(pentylsulphanyl)benzoyl]cyclopentanecarboxylic acid], the IC50 in test [1] is 670 nM; in test [2], 22 nM; in test [3] it was 230 nM; in test [4] it was 440 nM; in test [5], 0.023 nM.
For `O=C(O)[C@@H]1[C@@H](Cn2nnc3ccc(C(F)(F)F)cc3c2=O)CC[C@H]1C(=O)c1ccc(OCc2ccc(F)cc2)cc1` (single isomer, unassigned) [Example 13, (+)-(1RS,2RS,5SR)-2-{4-[(4-Fluorobenzyl)oxy]benzoyl}-5-{[4-oxo-6-(trifluoromethyl)-1,2,3-benzotriazin-3(4H)-yl]methyl}cyclopentanecarboxylic acid], in that order: 170 nM, 22 nM, 33 nM, 150 nM and 0.018 nM.
The like results for `O=C(O)[C@@H]1[C@@H](Cn2nnc3ccc(C(F)(F)F)cc3c2=O)CC[C@H]1C(=O)c1ccc(SCc2ccc(Cl)c(Cl)c2)cc1` (single isomer, unassigned) [Example 80, (+)-(1RS,2RS,5SR)-2-{4-[(3,4-Dichlorobenzyl)sulphanyl]benzoyl}-5-{[4-oxo-6-(trifluoromethyl)-1,2,3-benzotriazin-3(4H)-yl]methyl}cyclopentanecarboxylic acid] were, in that order, 5500 nM, 53 nM, 840 nM, 2600 nM and 0.079 nM.
